In test [1] the test system is L. donovani intracellular amastigotes. Nature of the test: Leishmania donovani intracellular (intramacrophage) assay, single concentration. Type of test: cell-based. The conditions noted are these: Leishmania donovani, Macrophage, 96 h, intracellular amastigotes in macrophages, Hoechst imaging, read-out: Inhibition of L. donovani proliferation (%). The method, then:
The effect of the compounds selected as inhibitors of rLmLAP on the proliferation of L. donovani amastigotes was evaluated at a concentration of 50 μM. Macrophage cultures (ECACC, catalog number: 88081201) were used as host cells. Parasites were incubated with 4.27× 10^7 macrophages, at a multiplicity of infection (MOI) of 5, at 37 °C with 5% CO2, overnight in DMEM medium supplemented with 4.5 g/L glucose and glutamine and 10% FBS, in a Millicell HY T-600 three-layer culture flask (Merck Millipore, Solna, Sweden). […] Macrophages were incubated for another 24 h in the above conditions with 133 μL of fresh DMEM medium prewarmed at 37 °C and supplemented with 10% FBS to obtain a high count of intracellular amastigotes.
Forty-two hours after macrophage infection, compounds (50 μM, 250 nL in DMSO) were dispensed using LabCyte ECHO into each well of 384-well dark flat bottom plates (Corning, New York, USA). The plates were incubated at 37 °C, 5% CO2, for 4 h (without compounds, with DMSO, to determine the initial level of infection) and for 96 h (with and without compounds).

The target of a further test is rLmLAP (Leishmania major, UniProt Q7KF27). Nature of the test: RapidFire-MS aminopeptidase activity assay: inhibition of rLmLAP (LSTVIVR substrate). The following applies: for IC50: RapidFire-MS, 5 nM enzyme, 10 μM LSTVIVR, 20 min preincubation, 0.195-100 μM, mean ± standard error (n = 3). Type of test: biochemical. The method, then: Assays were carried out as previously described,[24] with some differences indicated below. The reaction mix consisted of 0 nM (control) and 30 nM rLmLAP in 1× PBS, pH 7.0, 0.005% (v/v) NP-40, plus 7.5 μL of LSTVIVR substrate peptide in the same buffer. For product quantification, the peak areas of the LSTVIVR peptide were integrated with respect to the internal standard LSTVIVR* peptide. The C-terminal arginine was chosen because this amino acid is amenable to isotopic labeling.[45]
rLmLAP, sequence (Q7KF27 entry or part of it): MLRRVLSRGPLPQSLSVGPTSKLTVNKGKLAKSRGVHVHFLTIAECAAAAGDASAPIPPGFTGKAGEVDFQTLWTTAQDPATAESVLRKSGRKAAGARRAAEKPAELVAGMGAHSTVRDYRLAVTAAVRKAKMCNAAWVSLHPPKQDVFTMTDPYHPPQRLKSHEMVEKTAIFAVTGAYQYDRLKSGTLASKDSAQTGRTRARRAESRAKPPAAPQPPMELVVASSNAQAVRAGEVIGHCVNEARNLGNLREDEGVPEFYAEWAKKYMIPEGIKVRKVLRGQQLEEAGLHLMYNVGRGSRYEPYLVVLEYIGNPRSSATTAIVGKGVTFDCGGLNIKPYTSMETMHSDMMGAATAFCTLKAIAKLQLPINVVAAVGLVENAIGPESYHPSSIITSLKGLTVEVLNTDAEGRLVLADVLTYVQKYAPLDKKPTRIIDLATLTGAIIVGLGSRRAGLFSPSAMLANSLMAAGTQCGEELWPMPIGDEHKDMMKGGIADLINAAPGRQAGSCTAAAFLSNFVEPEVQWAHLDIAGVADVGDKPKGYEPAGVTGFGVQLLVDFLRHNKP
rLmLAP was assayed at 5 nM with 10 μM (1× appKM) of LSTVIVR substrate peptide. The enzyme was preincubated with bestatin or DMSO for 20 min. Bestatin was prepared at 10 concentrations in DMSO, covering the range from 0.39 to 100 μM. […] The remaining experimental conditions were maintained, as described above.
A high-throughput screen was conducted against rLmLAP using 3,383 compounds with known protease inhibitor motifs. The compounds were dispensed onto plates using an ECHO 550 acoustic dispenser (Labcyte, Sunnyvale, CA). The enzyme was assayed at 5 nM with 10 μM (1× appKM) LSTVIVR substrate for 60 min. Before adding the substrate, the enzyme was preincubated with 45 nL of the compounds or DMSO for 20 min. Compounds, dissolved in DMSO, were tested at 30 μM. […] No replicates were performed for each inhibitor in this experiment. The remaining experimental conditions were kept constant as described above. The ActivityBase program from IDBS provider (https://www.idbs.com) was used to process and analyze the data. Selection criteria for potential inhibitors in this screen required an inhibition percentage greater than the mean (calculated from the inhibition percentages of all the inhibitors) plus three standard deviations (SD). All compounds were purchased commercially and are >95% pure by HPLC.
To obtain IC50 data for screen-detected rLmLAP inhibitors at a single concentration, ten-point concentration–response curves were generated for selected inhibitors showing greater than mean ±3 SD inhibition. The curves were prepared in 384-well plates with a maximum concentration of 100 μM and 1:2 serial dilutions in DMSO (0.195–100 μM) using an ECHO 550 acoustic dispenser. All other experimental conditions were as described above for RapidFire-MS optimization. Three replicates of each concentration of inhibitor were evaluated. The IC50 value was calculated by nonlinear fitting of a four-parameter logistic function to the experimental data. Curve fitting and IC50 calculations were performed using IDBS ActivityBase XE version 9.2.0.106. Inhibitory activity was determined using the peak area ratio, calculated as the reaction product (STVIVR) divided by its internal standard (*LSTVIVR). The peak area ratio of the reaction without enzyme was defined as 100% inhibitory activity, and that of the complete reaction mixture was defined as 0% inhibitory activity. At least three replicates were generated for each hit compound.

Each structure is given as a SMILES string. Values joined by “and” are separate entries in the source; they are usually repeats but may differ in a detail not shown here. Identical values can stand only once.

Take `COc1ccc(S(=O)(=O)N2Cc3ccccc3CC2C(=O)O)cc1` (stereo not shown) [DDD00095849]: the inhibition at 50 µM in test [1] was 12.7 ± 1.5%. Besides, at rLmLAP, inhibition was half-maximal at 60 ± 5 µM (IC50).
For `N#CC(=Cc1cn(Cc2ccc(C(=O)O)o2)c2ccccc12)c1ccc(F)cc1` [DDD00092624] the same measures were 7 ± 1% and 35.2 ± 3.2 µM.
As for `CS(=O)(=O)Nc1cc2ccccc2cc1C(=O)O` [DDD00095117], the inhibition at 50 µM in test [1] stood at 0%. The IC50 against rLmLAP worked out at 19 ± 1 µM.
In the same order, the values of `Cc1cc(C(=O)N(Cc2ccco2)Cc2cc3ccc(Cl)cc3nc2N2CCCC2)n(C)n1` [DDD00092594] are 19.9 ± 1.3% and 36.3 ± 3.3 µM.
For `Cc1ccc(C(=O)O)cc1S(=O)(=O)Nc1cccc(C2SCCS2)c1` [DDD00096698], in test [1], the inhibition at 50 µM stood at 0%. The compound further registered an IC50 against rLmLAP of 50 ± 4 µM. The inhibition at 30 µM at rLmLAP (single-point high-throughput screen at 30 μM, read-out: Inhibition of rLmLAP in the screening) is approximately 65%.
With `O=C(O)c1ccc(-c2nccs2)s1` [DDD00097905], in test [1], the inhibition at 50 µM worked out at 0%. The compound further showed an IC50 at rLmLAP of 37.1 ± 3.3 µM.
Turning to `N#CC(=Cc1cn(Cc2ccc(C(=O)O)o2)c2ccccc12)c1nc2ccccc2[nH]1` [DDD00092640], the inhibition at 50 µM in test [1] was determined as 0%. The same compound displayed an IC50 at rLmLAP of 20.2 ± 1.1 µM.
Regarding `CC(C)C[C@H](NC(=O)[C@@H](O)[C@H](N)Cc1ccccc1)C(=O)O` [Bestatin, reference compound], at rLmLAP, the IC50 was 6 µM and 6.1 µM.

The values above are taken from publication PMC11184559, “Identification and Validation of Compounds Targeting Leishmania major Leucyl-Aminopeptidase M17” (ACS Infectious Diseases, 2024).
